According to the supplement of paper PMC11451515:

System: P12-Ichikawa
Experiment: cell viability relative to DMSO control; higher = less cytotoxic
Settings: 48 h
Summary of the method: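 NOMO1 or SEM cells were plated at 500 cells/well and P12-Ichikawa cells at 1000 cells/well in 1536-well plates (5 μl), after each leukemia line had been adapted for at least four passages in each medium. Pin dosing delivered library compounds in DMSO at 11 threefold concentrations, 47 μM to 0.79 nM. CellTiter-Glo One luminescence was read after 48 h at 37°C. Viability is reported as a per-plate percentage of DMSO wells, with cell-free wells as background.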

[1] = HPLM + 10% dialyzed FBS, 0.000781 µM
[2] = HPLM + 10% dialyzed FBS, 0.00234 µM
[3] = HPLM + 10% dialyzed FBS, 0.00702 µM
[4] = HPLM + 10% dialyzed FBS, 0.0211 µM
[5] = HPLM + 10% dialyzed FBS, 0.0632 µM
[6] = HPLM + 10% dialyzed FBS, 0.19 µM
[7] = HPLM + 10% dialyzed FBS, 0.569 µM
[8] = HPLM + 10% dialyzed FBS, 1.71 µM
[9] = HPLM + 10% dialyzed FBS, 5.12 µM
[10] = HPLM + 10% dialyzed FBS, 15.4 µM
[11] = HPLM + 10% dialyzed FBS, 46.1 µM
[12] = RPMI 5 mM glucose + 10% FBS, 0.000781 µM
[13] = RPMI 5 mM glucose + 10% FBS, 0.00234 µM
[14] = RPMI 5 mM glucose + 10% FBS, 0.00702 µM
[15] = RPMI 5 mM glucose + 10% FBS, 0.0211 µM
[16] = RPMI 5 mM glucose + 10% FBS, 0.0632 µM
[17] = RPMI 5 mM glucose + 10% FBS, 0.19 µM
[18] = RPMI 5 mM glucose + 10% FBS, 0.569 µM
[19] = RPMI 5 mM glucose + 10% FBS, 1.71 µM
[20] = RPMI 5 mM glucose + 10% FBS, 5.12 µM
[21] = RPMI 5 mM glucose + 10% FBS, 15.4 µM
[22] = RPMI 5 mM glucose + 10% FBS, 46.1 µM
[23] = RPMI 5 mM glucose + 10% dialyzed FBS, 0.000781 µM
[24] = RPMI 5 mM glucose + 10% dialyzed FBS, 0.00234 µM
[25] = RPMI 5 mM glucose + 10% dialyzed FBS, 0.00702 µM
[26] = RPMI 5 mM glucose + 10% dialyzed FBS, 0.0211 µM
[27] = RPMI 5 mM glucose + 10% dialyzed FBS, 0.0632 µM
[28] = RPMI 5 mM glucose + 10% dialyzed FBS, 0.19 µM
[29] = RPMI 5 mM glucose + 10% dialyzed FBS, 0.569 µM
[30] = RPMI 5 mM glucose + 10% dialyzed FBS, 1.71 µM
[31] = RPMI 5 mM glucose + 10% dialyzed FBS, 5.12 µM
[32] = RPMI 5 mM glucose + 10% dialyzed FBS, 15.4 µM
[33] = RPMI 5 mM glucose + 10% dialyzed FBS, 46.1 µM

Row | Structure (SMILES) | cell viability [1] | cell viability [2] | cell viability [3] | cell viability [4] | cell viability [5] | cell viability [6] | cell viability [7] | cell viability [8] | cell viability [9] | cell viability [10] | cell viability [11] | cell viability [12] | cell viability [13] | cell viability [14] | cell viability [15] | cell viability [16] | cell viability [17] | cell viability [18] | cell viability [19] | cell viability [20] | cell viability [21] | cell viability [22] | cell viability [23] | cell viability [24] | cell viability [25] | cell viability [26] | cell viability [27] | cell viability [28] | cell viability [29] | cell viability [30] | cell viability [31] | cell viability [32] | cell viability [33]
1 | Cc1cnc(-c2cc(N3CCN(C(=O)CC[S+](C)(=O)[O-])CC3)ncc2Cl)c(C)c1 | 117% | 116% | 114% | 130% | 124% | 131% | 126% | 122% | 130% | 128% | 128% |  |  |  |  |  |  |  |  |  |  |  |  |  |  |  |  |  |  |  |  |  | 
2 | CC(C)CC(=O)N[C@H](C(=O)N[C@H](C(=O)N[C@@H](CC(C)C)[C@@H](O)CC(=O)N[C@@H](C)C(=O)N[C@@H](CC(C)C)[C@@H](O)CC(=O)O)C(C)C)C(C)C | 103% | 103% | 107% | 108% | 105% | 114% | 118% | 116% | 105% | 111% | 97.9% | 108% | 109% | 121% | 109% | 97.6% | 113% | 105% | 113% | 122% | 103% | 108% | 98.1% | 99.7% | 106% | 102% | 96.6% | 103% | 107% | 111% | 102% | 97.6% | 96%
3 | O=C(Nc1c(Cl)cncc1Cl)c1ccc(OC(F)F)c(OCC2CC2)c1 | 101% | 112% | 118% | 105% | 114% | 113% | 111% | 115% | 117% | 108% | 104% | 103% | 116% | 111% | 115% | 122% | 121% | 119% | 106% | 110% | 106% | 106% | 96.8% | 107% | 100% | 108% | 106% | 108% | 114% | 111% | 113% | 109% | 105%
4 | O=C(NC[C@H](O)CO)c1ccncc1Nc1ccc(I)cc1F | 100% | 112% | 71.4% | 113% | 107% | 105% | 102% | 102% | 97.5% | 91.4% | 87.5% | 101% | 118% | 66.3% | 106% | 96% | 90.4% | 98.6% | 91.4% | 88.7% | 78.6% | 59.6% | 94.9% | 119% | 73.4% | 118% | 99.5% | 109% | 105% | 104% | 90.2% | 96.6% | 76.5%
5 | COc1ccc(C2CNC(=O)C2)cc1OC1CCCC1 (stereo not drawn) | 88.6% | 100% | 102% | 99% | 109% | 105% | 107% | 108% | 105% | 99% | 102% | 89% | 106% | 91.7% | 99% | 101% | 96.7% | 105% | 103% | 98.4% | 102% | 93% | 84.8% | 97.6% | 89.7% | 103% | 95.6% | 97.2% | 92.4% | 106% | 106% | 109% | 99%
